System: AGS human gastric adenocarcinoma cells
Assay: Human microarray study (Affymetrix Clariom S) of treated AGS cells
Assay type: cell-based
Settings: two days, positive = downregulated
Protocol: AGS human gastric adenocarcinoma cells were treated with compound I-1, or DMSO alone (as a negative control) for two days. After two days, RNA was isolated from compound I-1 treated cells and DMSO treated cells, in duplicate, and subjected to microarray analysis using AFFYMETRIX CLARIOM S microarrays. Data were represented as fold change relative to the compound I-1 treated cells, negative values represented genes that were on higher in compound I-1 treated cells than in DMSO treated cells, and positive values represented genes that were on higher in DMSO treated cells than in compound I-1 treated cells. Values were averaged for the duplicate samples. We included data for the genes whose expression was altered by more than 3 fold, either up or down, in response to compound I-1.
Negative numbers indicate fold upregulation upon drug treatment. Positive numbers indicate fold downregulation upon drug treatment. […] In addition, Chac1, PCK2, and SLC7A11 were all shown to have a tumor promoting activity and to be associated with the more dangerous and lethal forms of cancer, and these three genes were the three most strongly repressed genes measured in this analysis. There were other examples in the data that supported this model, but the overall model was that compound I-1 increased the expression of tumor suppressor genes, and decreased the expression of tumor promoting genes.

## CCC(=O)N1CCc2cc(-c3ccc(C(=O)NCc4cccnc4)cc3)ccc21 [Compound I-1]
  Fold Change CEBPG: 3.29 fold
  Fold Change CHAC1: 43.64 fold
  Fold Change CRNDE: 7.6 fold
  Fold Change CTH: 12.23 fold
  Fold Change CTNS: 3.16 fold
  Fold Change CYP1A1: 12.34 fold
  Fold Change DCLRE1A: 3.36 fold
  Fold Change DDIT3: 3.76 fold
  Fold Change DDIT4: 14.73 fold
  Fold Change DEPTOR: 3.05 fold
  Fold Change DMBT1: 3.25 fold
  Fold Change EEF2KMT: 4.01 fold
  Fold Change EFHC1: 3.67 fold
  Fold Change EIF4EBP1: 6.66 fold
  Fold Change ERICH2: 3.35 fold
  Fold Change EXOSC8: 3.68 fold
  Fold Change FAIM: 3.09 fold
  Fold Change FAM27E3: 4.39 fold
  Fold Change FAM86B1: 3.53 fold
  Fold Change FAM86C1: 3.18 fold
  Fold Change FAM111B: 3.46 fold
  Fold Change FAM216A: 3 fold
  Fold Change FIGNL1: 4.84 fold
  Fold Change FILIP1L: 3.7 fold
  Fold Change FUT1: 3.48 fold
  Fold Change GARS: 3.24 fold
  Fold Change GEN1: 3.39 fold
  Fold Change GPX8: 3.7 fold
  Fold Change GRB10: 3.1 fold
  Fold Change GSTM2: 3.25 fold
  Fold Change GSTM4: 4.02 fold
  Fold Change GTPBP2: 4.3 fold
  Fold Change H1F0: 3.59 fold
  Fold Change HAX1: 3.68 fold
  Fold Change HIST1H1B: 4.91 fold
  Fold Change HIST1H1C: 4.26 fold
  Fold Change HIST1H1D: 5.18 fold
  Fold Change HIST1H1E: 3.75 fold
  Fold Change HIST1H2AB: 6.88 fold
  Fold Change HIST1H2AE: 5.92 fold
  Fold Change HIST1H2AG: 5.06 fold
  Fold Change HIST1H2AI: 5.81 fold
  Fold Change HIST1H2AJ: 3.77 fold
  Fold Change HIST1H2AK: 3.52 fold
  Fold Change HIST1H2AL; HIST1H2BN: 3.72 fold
  Fold Change HIST1H2AM; HIST1H3J: 6.91 fold
  Fold Change HIST1H2BB: 3.09 fold
  Fold Change HIST1H2BE: 3.05 fold
  Fold Change HIST1H2BF: 3.75 fold
  Fold Change HIST1H2BG: 3.8 fold
  Fold Change HIST1H2BH: 3.09 fold
  Fold Change HIST1H2BI: 8.02 fold
  Fold Change HIST1H2BJ: 4.83 fold
  Fold Change HIST1H2BK: 3.06 fold
  Fold Change HIST1H2BL: 5.51 fold
  Fold Change HIST1H2BM: 12.33 fold
  Fold Change HIST1H3A: 3.04 fold
  Fold Change HIST1H3B: 5.94 fold
  Fold Change HIST1H3D; HIST1H2AD: 4.82 fold
  Fold Change HIST1H3F: 6.21 fold
  Fold Change HIST1H3G: 9.34 fold
  Fold Change HIST1H3H: 7.63 fold
  Fold Change HIST1H3I: 4.49 fold
  Fold Change HIST1H4A: 5.75 fold
  Fold Change HIST1H4D: 3.02 fold
  Fold Change HIST1H4H: 3.25 fold
  Fold Change HIST2H2AA3; HIST2H2AA4: 3.2 fold
  Fold Change HIST2H2AA4; HIST2H2AA3: 3.08 fold
  Fold Change HIST2H3A: 10.31 fold
  Fold Change HIST2H3A; HIST2H3C: 8.95 fold
  Fold Change HIST2H3D: 4.21 fold
  Fold Change HIST2H4A; HIST2H4B: 3.94 fold
  Fold Change HIST2H4B; HIST2H4A: 3.79 fold
  Fold Change HMMR: 4.62 fold
  Fold Change HOXB9: 5.66 fold
  Fold Change IARS: 3.29 fold
  Fold Change IFRD1: 6.11 fold
  Fold Change IFT88: 4.63 fold
  Fold Change IGF2BP3: 5.34 fold
  Fold Change IL20RB: 4.75 fold
  Fold Change INHBE: 12.74 fold
  Fold Change IRAK1BP1: 3.59 fold
  Fold Change IZUMO1: 4.5 fold
  Fold Change JDP2: 4.94 fold
  Fold Change KIF15: 3.66 fold
  Fold Change KIF21B: 3.52 fold
  Fold Change KLHL5: 3.17 fold
  Fold Change LGALS4: 3.06 fold
  Fold Change LMO4: 3.1 fold
  Fold Change LRRC8D: 3.82 fold
  Fold Change LYRM7: 3.58 fold
  Fold Change MARS; MIR6758: 3.79 fold
  Fold Change MAT2A: 5.04 fold
  Fold Change MB21D2: 4.66 fold
  Fold Change METTL4: 4.39 fold
  Fold Change MINA: 3.05 fold
  Fold Change MIR17HG; MIR17; MIR18A; MIR19A; MIR19B1; MIR20A; MIR92A1: 3.18 fold
  Fold Change MOCOS: 5.87 fold
  Fold Change MTHFD2: 3.26 fold
  Fold Change NCOA5: 3 fold
  Fold Change NCOA7: 3.2 fold
  Fold Change NEDD4: 3.11 fold
  Fold Change NOX1: 6.01 fold
  Fold Change NPIPA2: 3.06 fold
  Fold Change NPIPA3: 3.17 fold
  Fold Change NPIPA5: 3.15 fold
  Fold Change NPIPA7; NPIPA8; PKD1P1: 3.01 fold
  Fold Change NPIPA8: 3.2 fold
  Fold Change NUPR1: 5.76 fold
  Fold Change ORAOV1: 3.3 fold
  Fold Change PCK2: 17.83 fold
  Fold Change PDK1: 3.5 fold
  Fold Change PHLDB2; PLCXD2: 3.75 fold
  Fold Change PKD1; MIR6511B2; MIR6511B1: 3.36 fold
  Fold Change PKD2: 3.76 fold
  Fold Change PKDCC: 3.89 fold
  Fold Change PRIM1: 4.42 fold
  Fold Change PSAT1: 7.92 fold
  Fold Change PSPH: 4.23 fold
  Fold Change PTER: 3.93 fold
  Fold Change PTPRB: 3.96 fold
  Fold Change PYROXD1: 3.74 fold
  Fold Change RASGRP3: 3.19 fold
  Fold Change RASIP1: 3.21 fold
  Fold Change RBBP9: 3.05 fold
  Fold Change RBCK1: 4.36 fold
  Fold Change REG4: 3.04 fold
  Fold Change RFXAP: 4.14 fold
  Fold Change RNF170; MIR4469: 3.95 fold
  Fold Change S100P: 4.36 fold
  Fold Change SERPINB8: 6.07 fold
  Fold Change SETMAR: 3.32 fold
  Fold Change SH2B3: 4.5 fold
  Fold Change SHMT2: 3.22 fold
  Fold Change SLC1A4: 8.26 fold
  Fold Change SLC1A5: 4.04 fold
  Fold Change SLC6A9: 7.78 fold
  Fold Change SLC7A1: 3.19 fold
  Fold Change SLC7A5: 7.31 fold
  Fold Change SLC7A11: 15.27 fold
  Fold Change SLC16A4: 3.65 fold
  Fold Change SLC38A1: 3.03 fold
  Fold Change SLC43A1: 8.25 fold
  Fold Change SLC46A1: 5.39 fold
  Fold Change SLCO1B3: 3.61 fold
  Fold Change ST6GALNAC3: 4.78 fold
  Fold Change STAMBPL1: 3 fold
  Fold Change STPG1: 3.97 fold
  Fold Change SYNPO: 3.2 fold
  Fold Change TADA2A: 3.37 fold
  Fold Change TFF1: 11.81 fold
  Fold Change THOC1: 3.18 fold
  Fold Change TMEM218: 3.29 fold
  Fold Change TNFRSF9: 8.19 fold
  Fold Change TSEN15: 3.5 fold
  Fold Change TUBE1: 5.83 fold
  Fold Change UNC93A: 3.31 fold
  Fold Change WARS: 4.85 fold
  Fold Change WBP4: 3.63 fold
  Fold Change XPA: 3.25 fold
  Fold Change XRCC2: 3.5 fold
  Fold Change YAE1D1: 3.02 fold
  Fold Change ZBED8: 4.58 fold
  Fold Change ZC3H8: 4.04 fold
  Fold Change ZCCHC8: 3.9 fold
  Fold Change ZFAND1: 3.29 fold
  Fold Change ZNF302: 4.83 fold
  Fold Change ZNF518A: 4.12 fold
First ZNF780B entry
  Fold Change ZNF780B: 3.19 fold
Second ZNF780B entry
  Fold Change ZNF780B: 3.19 fold

Source: patent US12522587B2, “Cancer treatments targeting cancer stem cells” (Remedy Plan, Inc., priority 2018, dated 2026)
